The test has as its target T1, FaGT2* (Fragaria x ananassa, UniProt Q66PF4).
T1 construct: gene GT2; full-length ORF, N-terminal GST tag kept (pGEX-4T-1), E. coli BL21(DE3) pLysS; natural allele of FaGT2 with eight amino acid differences, of which R230, E420, I422 (FaGT2: S230, D420, V422) are given
Description: radiochemical UDP-[…]glucose transfer assay, butanol extraction, LSC; Hanes-Woolf and non-linear fit. The test is classed as biochemical. To be noted: 100 mM Tris-HCl pH 7.0, 30 °C, 30 min, fixed UDP-glucose (10 010 pmol); GST fusion.

T1 sequence (Q66PF4 whole entry): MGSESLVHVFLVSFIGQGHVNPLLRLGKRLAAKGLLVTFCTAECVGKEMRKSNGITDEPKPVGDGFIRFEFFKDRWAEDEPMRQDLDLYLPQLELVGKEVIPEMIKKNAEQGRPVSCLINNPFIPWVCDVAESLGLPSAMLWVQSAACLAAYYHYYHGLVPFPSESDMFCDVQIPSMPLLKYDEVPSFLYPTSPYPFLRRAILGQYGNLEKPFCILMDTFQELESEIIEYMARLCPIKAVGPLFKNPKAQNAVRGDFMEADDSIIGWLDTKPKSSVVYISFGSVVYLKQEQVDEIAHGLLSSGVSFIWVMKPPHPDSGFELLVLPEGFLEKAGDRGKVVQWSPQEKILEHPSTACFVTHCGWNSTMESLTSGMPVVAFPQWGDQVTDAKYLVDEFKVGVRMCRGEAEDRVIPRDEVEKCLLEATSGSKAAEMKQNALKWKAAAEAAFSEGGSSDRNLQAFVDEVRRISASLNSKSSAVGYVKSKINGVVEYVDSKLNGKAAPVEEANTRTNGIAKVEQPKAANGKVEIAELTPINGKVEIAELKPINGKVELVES

What is called Km is the concentration of substrate that gives half-maximal velocity. As to `O=C(O)c1ccc(O)cc1` [4-Hydroxybenzoic acid], the Km came to 315 ± 8.4 µM.

As to `COc1cc(/C=C/C(=O)O)cc(OC)c1O` [Sinapic acid], the Km is 35 ± 3 µM. With `COc1cc(C(=O)O)cc(OC)c1O` [Syringic acid], the Km stood at 262 ± 7 µM. Then `COc1cc(C(=O)O)ccc1O` [Vanillic acid], with 364 ± 12.8 µM.

These data come from publication PMC4809288, “Formation of β-glucogallin, the precursor of ellagic acid in strawberry and raspberry” (Journal of Experimental Botany, 2016).
